Blank lines part the entries; values can stand above or below the compound they belong to.
Legend:
[1] = tested on: membrane potential of pig heart mitochondria; assay: Mitochondrial membrane potential assay (JC-10) in pig heart mitochondria; assay type: biochemical; conditions: JC-10, 5 min incubation
Source text: Next we analyzed the mechanism of action of DS16570511. The previous studies implicated two possible inhibitory mechanisms for the mitochondrial Ca^2+ uptake: (1) direct blockade of the calcium uniporter and (2) disruption of the membrane potential.[20],[21] Mitochondrial Ca^2+ uptake is mediated by electrical potential across the mitochondrial inner membrane, which is generated by the oxidative phosphorylation system. […] To examine effects on the mitochondrial membrane potential, fluorescent indicator JC-10 was used in mitochondria from pig heart.
(a) Effect of FCCP on Ca^2+ uptake of pig heart mitochondria. […] Relative membrane potential 0 or 100% is defined as value of 1 μM FCCP-treated mitochondria or vehicle-treated mitochondria, respectively. Data are mean with S.E.M. from three (a) or four (b) independent samples.
Pig heart mitochondria were prepared as described above and suspended in the swelling buffer containing 1 μM JC-10. The protein concentration of the solution was 5 mg/ml. Five minutes after incubation of the mitochondria with DS16570511 at room temperature, fluorescence intensities were measured by a FlexStation 3 (Molecular Devices, LLC, Sunnyvale, CA, USA) using the green channel (excitation/emission wavelength: 485/538 nm) or the red channel (excitation/emission wavelength: 485/612 nm).

[2] = tested on: Hela cells; parameters: method as in PMID 17471180; conditions: cited from earlier work
[3] = tested on: cultured myocytes; parameters: method as in PMID 22425903; conditions: cited from earlier work
[4] = molecular target: T1, mitochondrial calcium uniporter (Homo sapiens, UniProt Q8NE86); assay: Ca2+ uptake of isolated mitochondria from HEK293A cells (aequorin luminescence); assay type: biochemical; parameters: isolated mitochondria from HEK293A cells were used; endogenous in cells; host or cells: mitochondria isolated from HEK293A cells stably expressing mitochondria-targeted aequorin
T1 sequence (Q8NE86 51-351): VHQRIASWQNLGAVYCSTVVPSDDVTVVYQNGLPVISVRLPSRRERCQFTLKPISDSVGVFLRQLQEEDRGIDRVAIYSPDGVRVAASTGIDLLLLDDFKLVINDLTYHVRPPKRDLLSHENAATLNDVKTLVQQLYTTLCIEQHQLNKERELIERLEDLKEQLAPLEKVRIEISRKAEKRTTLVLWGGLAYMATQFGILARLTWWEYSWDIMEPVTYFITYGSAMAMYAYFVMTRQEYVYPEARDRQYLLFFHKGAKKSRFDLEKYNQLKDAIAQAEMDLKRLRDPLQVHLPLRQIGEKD
T1 sequence (Q9H4I9 48-107 partner limits assumed): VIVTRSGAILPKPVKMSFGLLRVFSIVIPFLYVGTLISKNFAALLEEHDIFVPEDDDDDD
Description: Mitochondrial Ca^2+ uptake activity is regulated by cytosolic protein kinase signaling,[19] raising the possibility that HTS hits contained indirect inhibitors of the uniporter, such as inhibitors of cytosolic signaling. To examine the direct inhibitory effect of the compounds on the mitochondrial Ca^2+ uptake, isolated mitochondria from HEK293A cells were used. Ca^2+ uptake of the isolated mitochondria was observed as a rapid increase in the luminescence level after application of 100 μM Ca^2+ (Figure 2a).
Figure 2 DS16570511 inhibits Ca^2+ uptake in isolated mitochondria from HEK293A cells. (a) Representative raw data of Ca^2+ uptake in isolated mitochondria. (b) Effect of DS16570511 or Ru360 on mitochondrial Ca^2+ uptake. The area under the curve of temporal aequorin activities is used for calculation of inhibitory activities. Inhibition 0 or 100% is defined as a value of […], respectively. Data are mean with S.E.M. from three independent samples.
To monitor Ca^2+ uptake activity of isolated mitochondria, mitochondria were prepared from the cells (1×10^8 cells) stably expressing mitochondria-targeted aequorin by using a mitochondria isolation kit. […] The luminescence levels were detected as described above.

[5] = tested on: Ca2+ uptake of rat heart mitochondria; assay: Ca2+ uptake assay using isolated rat heart mitochondria (atomic absorbance spectrometer); assay type: biochemical; conditions: 100 μM CaCl2; read-out: IC50, inhibition of Ca2+ uptake of rat heart mitochondria
Description: (§1) We then asked whether DS16570511 inhibits Ca^2+ uptake in isolated mitochondria from animal heart. An atomic absorbance spectrometer-based detection method was employed to analyze intramitochondrial Ca^2+ levels. We prepared freshly isolated mitochondria from pig heart, and the mitochondria were incubated with 100 μM CaCl2.
(§2) Figure 3 DS16570511 inhibits Ca^2+ uptake in isolated heart mitochondria. (a) Effect of RuR on Ca^2+ uptake of pig heart mitochondria. […] Data are mean with S.E.M. from three independent samples. (b) Inhibition rate of RuR or DS16570511 on Ca^2+ uptake of pig heart mitochondria. Inhibition 0 or 100% is defined as a value of Ca^2+-untreated mitochondria or Ca^2+-treated mitochondria, respectively. Data are mean with S.E.M. from three independent samples. (c) Inhibition rate of RuR or DS16570511 on Ca^2+ uptake of rat heart mitochondria. Data are mean with S.E.M./variation from three or two independent samples for DS16570511 or RuR, respectively.
Mitochondria were isolated by using the mitochondria isolation kit and then dissolved in the swelling buffer. The protein concentration of the mitochondrial solution was 5 mg/ml. […] The solution was then diluted by water, and Ca^2+ concentration of the solution was measured by atomic absorbance spectrometer (Hitachi High-Technologies Corporation, Z-2710, Tokyo, Japan).

[6] = tested on: Ca2+ uptake of pig heart mitochondria; assay: Ca2+ uptake assay using isolated pig heart mitochondria (atomic absorbance spectrometer); assay type: biochemical; conditions: 100 μM CaCl2
Description: as §1
as §2, with “(a)” for “Figure 3 DS16570511 inhibits Ca^2+ uptake in isolated heart mitochondria. (a)”
Mitochondria were isolated by using the mitochondria isolation kit and then dissolved in the swelling buffer. The protein concentration of the mitochondrial solution was 5 mg/ml. Thirty minutes after application of CaCl2 (final concentration of 100 μM) to the solution, the mitochondria were collected by centrifugation (3000 g) at 4 °C. The pellets were resuspended in the swelling buffer containing 1 μM RuR. After collection of the mitochondria by centrifugation (3000 g), the pellets were dried and dissolved by 40 μl of sulfuric acid at 95 °C.

[7] = tested on: recombinant MCU multimers; parameters: method as in PMID 26285678; conditions: lipid bilayer; cited from earlier work

SMILES: N#CC(C#N)=NNc1ccc(OC(F)(F)F)cc1 [FCCP, carbonyl cyanide-p-trifluoromethoxyphenylhydrazone]
effect on mitochondrial membrane potential [1]: disruption of the potential in a dose-dependent manner

SMILES: N=C(N)SCCc1ccc(OCc2ccc([N+](=O)[O-])cc2)cc1 [KB-R7943]
effect on agonist-induced mitochondrial Ca2+ influx [2]: inhibit

SMILES: CS(=O)(=O)O.CS(=O)(=O)O.O=S1(=O)CCN(Cc2cc(NCC3CCOCC3)c3[nH]c(-c4ccccc4)cc3c2)CC1 [NecroX-5]
effect on Ca2+ accumulation [3]: attenuate

SMILES: N.N.N.N.N.N.N.N.O=C[O-].O=C[O-].[O-2].[Ru+3].[Ru+4] [Ru360, Ruthenium 360, reference compound]
IC50 [4]: 20 nM
effect on mitochondrial membrane potential [1]: no effect

IC50 [5]: 100 nM
IC50 ([6]; read-out: IC50, inhibition of Ca2+ uptake of pig heart mitochondria): 30 nM
SMILES: N.N.N.N.N.N.N.N.N.N.N.N.N.N.[Cl-].[Cl-].[Cl-].[Cl-].[Cl-].[Cl-].[O-2].[O-2].[Ru+3].[Ru+3].[Ru+4] [RuR, Ruthenium Red]
effect on Ca2+ uptake activity of isolated pig heart mitochondria (in words) [6]: fully blocked
effect on Ca2+ channel activity mediated by recombinant MCU multimers [7]: inhibited
